Patent US10683267B1, “Antidiabetic compounds” (King Abdulaziz University, priority 2019, dated 2020)
Entries after “also recorded” stand apart in the source; their conditions may differ. Read-outs that look alike come from different tables or passages of the source. Marks after values point to notes of the source that are not given here.

Tests used:
DPP-IV enzyme = target: T1, DPP-IV enzyme (Homo sapiens, UniProt P27487); assay: In vitro DPP-IV inhibition assay (Biovision kit, fluorescence); assay type: biochemical; details: for % Inhibition (values marked *: inhibition at 1000 nM): compound at 1000 nM; for DPP-4 enzyme inhibition activity, in words: SAR discussion; for % Inhibition @ 100 nM / inhibition at 0.1 µM: compound at 100 nM
T1 construct: purchased Biovision (Milpitas, Calif., USA)
T1 sequence (P27487 whole entry, species assumed): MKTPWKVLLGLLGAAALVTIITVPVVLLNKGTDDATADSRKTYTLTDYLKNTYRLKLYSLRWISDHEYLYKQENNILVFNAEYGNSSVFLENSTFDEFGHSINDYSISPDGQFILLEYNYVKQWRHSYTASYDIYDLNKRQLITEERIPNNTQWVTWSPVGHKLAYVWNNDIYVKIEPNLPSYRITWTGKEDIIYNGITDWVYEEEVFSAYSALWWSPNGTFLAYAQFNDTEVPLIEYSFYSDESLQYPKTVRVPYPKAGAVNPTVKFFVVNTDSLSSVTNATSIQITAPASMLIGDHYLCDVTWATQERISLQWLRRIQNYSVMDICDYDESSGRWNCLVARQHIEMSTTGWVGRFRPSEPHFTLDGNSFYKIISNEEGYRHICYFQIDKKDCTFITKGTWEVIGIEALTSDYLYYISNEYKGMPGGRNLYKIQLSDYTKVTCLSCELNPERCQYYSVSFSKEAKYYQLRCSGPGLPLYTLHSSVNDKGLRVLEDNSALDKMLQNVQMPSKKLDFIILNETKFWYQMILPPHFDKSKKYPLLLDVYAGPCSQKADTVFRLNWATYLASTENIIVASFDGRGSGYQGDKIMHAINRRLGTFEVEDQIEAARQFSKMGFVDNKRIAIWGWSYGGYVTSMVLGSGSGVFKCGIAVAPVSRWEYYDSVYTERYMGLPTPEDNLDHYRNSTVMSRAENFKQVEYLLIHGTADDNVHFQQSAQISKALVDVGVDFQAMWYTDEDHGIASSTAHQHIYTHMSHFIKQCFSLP
Experimental: DPP-IV inhibition assay was conducted using a kit purchased from Biovision (Milpitas, Calif., USA). Briefly, DPP-IV enzyme was diluted with Tris buffer and pipetted 50 μl into glass mini-cells. […] Finally a volume of 25 μl of DPP-IV substrate was added into each tube. The fluorescence generated from hydrolysis of the substrate was read at Ex/Em=360/460 nm using Modulus® single tube multimode reader (Promega, USA). Baseline fluorescence was recorded before incubation (R1) and 20 min after incubation (R2).
The standard DPP-IV inhibitor drug sitagliptin employed as positive control. […] Sigmoidal concentration-response curves for DPP-IV % inhibition versus log concentration were plotted using Graphpad prism software, version 5.00 (GraphPad Software, Inc. La Jolla, Calif., USA).

diabetic mice [1] = assay: Oral glucose tolerance test (OGTT) after single dose in diabetic mice; assay type: in vivo; details: for R.P. to Vildagliptin (Single Dose): Table 6, relative potency, B.G. = blood glucose; for AUC % change from diabetic control / AUC Δ from diabetic control / AUC of blood glucose in OGTT (X, mean): single oral dose 50 mg/kg; for AUC of blood glucose in OGTT (X, mean): glucose load 2 g/kg 2 h later, AUC 0-120 min
Experimental: (§1) The Biochemical and Research Ethical Committee of King Abulaziz University (Jeddah, Saudi Arabia), in accordance with the NIH guidelines, approved all procedures, and the animals received human care during the experimental period. Experiments were carried out using adult male Swiss albino mice (SWR), of 8-9 weeks age and 30-35 g weight. Animals were purchased from the animal house of the King Fahed Medical Research center (KFMRC), Jeddah, Saudi Arabia. Mice were kept at a constant temperature of 24-25° C. and were subjected to a controlled 12 h light-dark cycle; they had free access to water and pelleted diet ad libitum.
(§2) Nicotinamide (210 mg/kg b.w.), dissolved in saline, was injected intraperitoneally 15 min before the intraperitoneal injection of Streptozotocin (STZ) (Sigma, 180 mg/kg b.w.), which was freshly prepared in citrate buffer (pH 4.5). Control animals received both vehicles. During the experimental period, animals' food intake and body weight gain were monitored once a week.
Oral glucose tolerance tests were performed in 14 h overnight fasted diabetic mice that were pretreated with a single oral dose of the tested compounds. […] The drugs were suspended in carboxymethyl cellulose (CMC)-Na (1% in distilled water) and the dosing volume was adjusted at 10 mL/kg body weight of the mouse. Then an oral glucose load was administered (2 g/kg) 2 h after drug treatment. Blood glucose levels were determined using the Accu-check Go® (Roche Diagnostics, Michigan, USA). Samples were collected just before drug administration (fasting blood glucose), then at 2 h after drug treatment (immediately before glucose loading). Then blood sample collection was continued at 20, 40, 60 and 120 min intervals after glucose loading.
Animals were distributed between three categories of groups. Each group is composed of six animals (n=6) […] as follows:
Category 1: One group of animals were 14 h overnight-fasted normoglycemic mice and vehicle-treated (1% CMC-Na) at a dose of 10 ml/kg.
Category 2: Another group of animals was overnight fasted diabetic mice received the vehicle (1% CMC-Na) at a dosing volume of 10 ml/kg and served as a negative control.
Category 4: Animals of these groups were overnight fasted diabetic mice received the tested compounds at a dose of 50 mg/kg in 1% CMC (volume of 10 ml/kg).

diabetic mice [2] = assay: Oral glucose tolerance test (OGTT) after multiple doses (6 days) in diabetic mice; assay type: in vivo; details: for R.P. to Vildagliptin (6 Days): Table 6, relative potency, B.G. = blood glucose; for AUC % change from diabetic control / AUC Δ from diabetic control / Relative potency to vildagliptin / AUC of blood glucose in OGTT (X, mean): 50 mg/kg oral for 6 days; for Relative potency to vildagliptin: OGTT AUC; for AUC of blood glucose in OGTT (X, mean): glucose load 2 g/kg 2 h after 6th dose, AUC 0-120 min
Experimental: as §1, §2
(§3) On the same groups that received the single dose treatment, the tested compounds were given daily by oral gavage for six consecutive days. On day 6, the overnight fasted diabetic mice were pretreated with the 6th oral dose of the tested compounds. Two hours later, an oral glucose was loaded (2 g/kg/10 ml b.w.). Blood glucose levels were determined using the Accu-check Go®. Samples were collected just before drug administration (Fasting Blood glucose), then 2 h after drug treatment and before glucose administration. Samples collection was continued at 20, 40, 60 and 120 min intervals after glucose loading.

diabetic mice [3] = assay: Fasting blood glucose of diabetic mice treated daily for 6 consecutive days; assay type: in vivo; details: 50 mg/kg oral daily
Experimental: as §1, §2, §3
The oral glucose tolerance test (OGTT) was performed over six days on diabetic mice. The glucose level was monitored daily (Table 3). The results were analyzed for activities after a single dose (Table 4) and after the 6th dose of the drug (Table 5).

[4] = Table 2, head prints no unit, nM per Table 6, read-out: IC50
[5] = read-out: enzymatic inhibition value / inhibitory activity (IC50)

Row | SMILES | % Inhibition (values marked *: inhibition at 1000 nM) (DPP-IV enzyme) | DPP-4 enzyme inhibition activity, in words (DPP-IV enzyme) | IC50 (DPP-IV enzyme; [4]) [nM] | IC50 (DPP-IV enzyme; Table 6, read-out: IC50) [nM] | % Inhibition @ 100 nM (DPP-IV enzyme) [%] | R.P. to Vildagliptin (Single Dose) (diabetic mice [1]) | R.P. to Vildagliptin (6 Days) (diabetic mice [2]) | other results
1 | O=C(CNC12CC3CC(CC(O)(C3)C1)C2)NCCc1ccccc1 [Compound 59] | 67.04* % | – | – | – | – | 0.52 | 0.83 | –
2 | Cc1cccc(C)c1NC(=O)CNC12CC3CC(CC(C3)C1)C2 [Compound 120] | 62.84* % | much weaker enzyme inhibition activities | – | – | – | – | – | –
3 | O=C(CNC12CC3CC(CC(C3)C1)C2)Nc1cccc(O)c1 [Compound 111] | – | much better performance | 2.08 | 2.08 | 79.63 | 1.52 | 0.46 | AUC % change from diabetic control (diabetic mice [1]): −50.39%; AUC Δ from diabetic control (diabetic mice [1]): 25735 mg·min/dL; AUC of blood glucose in OGTT (X, mean) (diabetic mice [1]): 25330* mg · dL^−1 · min; AUC % change from diabetic control (diabetic mice [2]): −9.820%; AUC Δ from diabetic control (diabetic mice [2]): 6161 mg·min/dL; Relative potency to vildagliptin (diabetic mice [2]): 0.27; AUC of blood glucose in OGTT (X, mean) (diabetic mice [2]): 47494 mg·min/dL; Fasting blood glucose level, Day 1 (diabetic mice [3]): 171.00 mg/dL; Fasting blood glucose level, Day 2 (diabetic mice [3]): 122.40 ± mg/dL; Fasting blood glucose level, Day 3 (diabetic mice [3]): 74.80 ± mg/dL; Fasting blood glucose level, Day 4 (diabetic mice [3]): 153.00 ± mg/dL; Fasting blood glucose level, Day 5 (diabetic mice [3]): 141.20 ± mg/dL; Fasting blood glucose level, Day 6 (diabetic mice [3]): 180.20 mg/dL
4 | N#Cc1ccc(NC(=O)CNC23CC4CC(CC(C4)C2)C3)cc1 [Compound 118] | – | high affinity towards the enzyme; also recorded: high DPP-4 inhibition | 6.25 | 6.25 | 81.14 | 1.33 | 0.64 | AUC % change from diabetic control (diabetic mice [1]): −44.22%; AUC Δ from diabetic control (diabetic mice [1]): 22581 mg·min/dL; AUC of blood glucose in OGTT (X, mean) (diabetic mice [1]): 28484* mg · dL^−1 · min; AUC % change from diabetic control (diabetic mice [2]): −54.25%; AUC Δ from diabetic control (diabetic mice [2]): 28569 mg·min/dL; Relative potency to vildagliptin (diabetic mice [2]): 1.50; AUC of blood glucose in OGTT (X, mean) (diabetic mice [2]): 24086* mg · dL^−1 · min; Fasting blood glucose level, Day 1 (diabetic mice [3]): 151.00 ± mg/dL; Fasting blood glucose level, Day 2 (diabetic mice [3]): 124.00 ± mg/dL; Fasting blood glucose level, Day 3 (diabetic mice [3]): 117.80 ± mg/dL; Fasting blood glucose level, Day 4 (diabetic mice [3]): 141.00 ± mg/dL; Fasting blood glucose level, Day 5 (diabetic mice [3]): 140.50 ± mg/dL; Fasting blood glucose level, Day 6 (diabetic mice [3]): 151.30 ± mg/dL
5 | O=C(CNC12CC3CC(CC(O)(C3)C1)C2)Nc1cccc(F)c1 [Compound 31] | – | generally weak | 62.3 | 62.3 | 56.23 | 0.37 | 0.85 | –
6 | N#C[C@@H]1CCCN1C(=O)CNC12CC3CC(CC(O)(C3)C1)C2 [Vildagliptin, reference compound] | – | – | – | – | – | – | 1 | Fasting blood glucose level, Day 1 (diabetic mice [3]): 205.20 ± mg/dL; Fasting blood glucose level, Day 2 (diabetic mice [3]): 119.40 ± mg/dL; Fasting blood glucose level, Day 3 (diabetic mice [3]): 169.20 ± mg/dL; Fasting blood glucose level, Day 4 (diabetic mice [3]): 197.80 mg/dL; Fasting blood glucose level, Day 5 (diabetic mice [3]): 244.60 mg/dL; Fasting blood glucose level, Day 6 (diabetic mice [3]): 165.00 mg/dL
7 | N#Cc1cccc(NC(=O)CNC23CC4CC(CC(O)(C4)C2)C3)c1 [Compound 26, N-(3-cyanophenyl)-2-[(3-hydroxyadamantan-1-yl)amino]acetamide] | – | high affinity towards the enzyme | 0.58 | 0.58 | – | 0.32 | 1.3 | DPP-4 enzyme inhibition activity, in words (DPP-IV enzyme; listed as GLP-26): high level of potency both in vitro and in vivo; inhibition at 0.1 µM (DPP-IV enzyme): 83.1%; IC50 (DPP-IV enzyme; [5]): < 1 nM
8 | O=C(CNC12CC3CC(CC(C3)C1)C2)Nc1cc(Cl)ccn1 [Compound 117] | – | high DPP-4 inhibition; also recorded: best functionality in enzyme inhibition activity | 5.42 | – | 83.14 | – | – | –
9 | O=C(CNC12CC3CC(CC(O)(C3)C1)C2)NCc1ccc(F)cc1 [Compound 54] | – | – | 87.1 | 87.1 | 57.12 | Increased B.G. | Increased B.G. | –
10 | O=C(CNC12CC3CC(CC(O)(C3)C1)C2)Nc1ccc(O)cc1 [Compound 60] | 20.11* % | very weak activity | – | – | – | 0.67 | 0.67 | –
11 | O=C(CNC12CC3CC(CC(O)(C3)C1)C2)NCc1ccccc1 [Compound 53] | – | – | 7.41 | – | – | – | – | inhibition at 0.1 µM (DPP-IV enzyme): 86.8%
12 | O=C(CNC12CC3CC(CC(O)(C3)C1)C2)Nc1ccc(Cl)cc1 [Compound 43] | – | weak inhibitors at high concentration | 102 | > 100 | 51.64 | 0.26 | 1.39 | –
13 | COc1ccccc1NC(=O)CNC12CC3CC(CC(O)(C3)C1)C2 [Compound 5] | 93.48* % | weakened the enzyme inhibition activities | 94.1 | 94.1 | – | 0.66 | 0.26 | –

Further lines, with some results ahead:

Row | % Inhibition (values marked *: inhibition at 1000 nM) (DPP-IV enzyme) | DPP-4 enzyme inhibition activity, in words (DPP-IV enzyme) | IC50 (DPP-IV enzyme; [4]) [nM] | IC50 (DPP-IV enzyme; Table 6, read-out: IC50) [nM] | % Inhibition @ 100 nM (DPP-IV enzyme) [%] | SMILES | R.P. to Vildagliptin (Single Dose) (diabetic mice [1]) | R.P. to Vildagliptin (6 Days) (diabetic mice [2]) | other results
14 | 70.92* % | much weaker enzyme inhibition activities | – | – | – | Cc1cccc(NC(=O)CNC23CC4CC(CC(O)(C4)C2)C3)c1 [Compound 30] | – | – | –
15 | – | very weak activity | 212 | > 100 | 44.44 | O=C(CNC12CC3CC(CC(O)(C3)C1)C2)Nc1cccc(O)c1 [Compound 17] | 0.26 | 1.42 | –
16 | 67.04* % | generally weak | – | – | – | O=C(CNC12CC3CC(CC(O)(C3)C1)C2)Nc1ccccc1F [Compound 27] | – | – | –
17 | 99.06* % | exception to nitrile performance | 267 | > 100 | – | N#Cc1ccccc1NC(=O)CNC12CC3CC(CC(O)(C3)C1)C2 [Compound 19] | 0.23 | 0.87 | –
18 | – | generally weak | 41.3 | 41.3 | 84.81 | O=C(CNC12CC3CC(CC(O)(C3)C1)C2)Nc1ccccc1C(F)(F)F [Compound 14] | 0.12 | Increased B.G. | –
19 | – | – | 10.1 | 10.1 | 86.82 | Cc1ccccc1NC(=O)CNC12CC3CC(CC(O)(C3)C1)C2 [Compound 2] | 0.42 | 1.2 | IC50 (DPP-IV enzyme; [5]): 10.3 nM
20 | – | much weaker enzyme inhibition activities | – | – | 28.38 | Cc1ccc(NC(=O)CNC23CC4CC(CC(O)(C4)C2)C3)cc1 [Compound 3] | – | – | –
